Test results: patent publication US20020183249A1, “Method of identifying inhibitors of CDC25” (priority 1999, published 2002)
Read-outs that look alike come from different tables or passages of the source. Non-standard residues stand in square brackets, D forms with d. Residues, ends and D or L forms follow the SMILES beside them. *: point of attachment. Phe(4-CH2SO3H) = N[C@@H](Cc1ccc(CS(=O)(=O)O)cc1)C(=O)O; Bta = N[C@@H](Cc1csc2ccccc12)C(=O)O; Aad = N[C@@H](CCCC(=O)O)C(=O)O; X1 = CCOc1ccc2ccccc2c1C(=O)*; X2 = COc1ccc2ccccc2c1C(=O)*; αMeP = C[C@@]1(C(=O)O)CCCN1; Nle = CCCC[C@H](N)C(=O)O; Nva = CCC[C@H](N)C(=O)O; NHtBu = CC(C)(C)N*; OtBu = CC(C)(C)O*

What was measured:
Cdc25A = target: T1, Cdc25A (Homo sapiens, UniProt P30304); experiment: Inhibition of Cdc25A enzymatic activity (IC50); assay type: biochemical
T1 sequence (P30304 1-524): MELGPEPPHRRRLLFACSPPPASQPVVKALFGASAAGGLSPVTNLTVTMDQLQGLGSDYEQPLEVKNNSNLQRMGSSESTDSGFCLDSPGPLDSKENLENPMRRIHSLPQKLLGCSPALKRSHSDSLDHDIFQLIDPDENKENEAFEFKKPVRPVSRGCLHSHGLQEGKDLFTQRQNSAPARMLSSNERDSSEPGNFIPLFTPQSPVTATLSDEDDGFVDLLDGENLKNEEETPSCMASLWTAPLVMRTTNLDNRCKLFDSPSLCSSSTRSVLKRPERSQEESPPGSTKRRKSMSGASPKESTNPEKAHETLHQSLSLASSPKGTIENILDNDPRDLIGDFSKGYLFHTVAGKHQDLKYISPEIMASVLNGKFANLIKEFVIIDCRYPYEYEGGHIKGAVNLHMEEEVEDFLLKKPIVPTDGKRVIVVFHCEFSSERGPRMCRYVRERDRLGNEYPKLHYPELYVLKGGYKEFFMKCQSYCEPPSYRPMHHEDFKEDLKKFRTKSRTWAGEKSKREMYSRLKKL
From the text: A compound which is identified by one of the foregoing methods as a potential inhibitor of Cdc25 can then be obtained, for example, by synthesis or from a compound library, and assessed for the ability to inhibit Cdc25 in vitro. Such an in vitro assay can be performed as is known in the art, for example, by contacting Cdc25 in solution with the test compound in the presence of a substrate for Cdc25. The rate of substrate transformation can be determined in the presence of the test compound and compared with the rate in the absence of the test compound. Suitable assays for Cdc25 biological activity are described in U.S. Pat. Nos. 5,861,249; 5,695,950; 5,443,962; and 5,294,538, the teachings of each of which are hereby incorporated by reference herein in their entirety.

Cdc25A (human) = experiment: cell-based or functional assay

Molecule | IC50 (Cdc25A (human)) [nM] | IC50 (Cdc25A) [nM] | further results
CCOc1ccc2ccccc2c1C(=O)N[C@@H](Cc1ccc(CS(=O)(=O)O)cc1)C(=O)N[C@@H](CCC(=O)O)C(=O)N1CCC[C@H]1C(=O)N[C@@H](Cc1csc2ccccc12)C(=O)N[C@@H](CCCC(=O)O)C(=O)NC(C)(C)C [cdc1763] (X1-[Phe(4-CH2SO3H)]EP[Bta][Aad]-NHtBu) | – | 2200 | increase in potency compared to cdc1671 (Cdc25A; Cdc25A IC50 relative to cdc1671): two-fold
CCCC[C@H](NC(=O)[C@H](Cc1ccc(CS(=O)(=O)O)cc1)NC(=O)c1c(OCC)ccc2ccccc12)C(=O)N1CCC[C@H]1C(=O)N[C@@H](Cc1csc2ccccc12)C(=O)N[C@@H](CCCC(=O)O)C(=O)NC(C)(C)C [cdc1748] (X1-[Phe(4-CH2SO3H)][Nle]P[Bta][Aad]-NHtBu) | – | 2500 | –
CCC[C@H](NC(=O)[C@H](Cc1ccc(CS(=O)(=O)O)cc1)NC(=O)c1c(OCC)ccc2ccccc12)C(=O)N1CCC[C@@]1(C)C(=O)N[C@@H](Cc1csc2ccccc12)C(=O)N[C@@H](CCCC(=O)O)C(=O)NC(C)(C)C [cdc1749] (X1-[Phe(4-CH2SO3H)][Nva][αMeP][Bta][Aad]-NHtBu) | – | 1500 | –
CCOc1ccc2ccccc2c1C(=O)N[C@@H](Cc1ccc(CS(=O)(=O)O)cc1)C(=O)N[C@@H](CCC(=O)OC(C)(C)C)C(=O)N1CCC[C@H]1C(=O)N[C@@H](Cc1csc2ccccc12)C(=O)N[C@@H](CCCC(=O)O)C(=O)NC(C)(C)C [cdc1719] (X1-[Phe(4-CH2SO3H)]E(OtBu)P[Bta][Aad]-NHtBu) | – | 1100 | –
COc1ccc2ccccc2c1C(=O)N[C@@H](Cc1ccc(CS(=O)(=O)O)cc1)C(=O)N[C@@H](CCC(=O)O)C(=O)N[C@@H](CCC(=O)O)C(=O)N[C@@H](Cc1csc2ccccc12)C(=O)N[C@@H](CCCC(=O)O)C(=O)NC(C)(C)C [cdc1671, 2-CH3O-1-naphthyl-CO—Smp—Glu—Glu—Bta—Aad—NHtBu] (X2-[Phe(4-CH2SO3H)]EE[Bta][Aad]-NHtBu) | – | – | IC50 (Cdc25A; inhibits Cdc25A, read-out: IC50): 5000 nM

Now from value to molecule, other results behind:

IC50 (Cdc25A (human)) [nM] | Molecule | IC50 (Cdc25A) [nM] | further results
1500 | 2-EtO-naphthyl-1-CO-Smp-Nva-MePro-Bta-Aad-NHtBu (peptide) | – | –
5000 | 2-CH3O-1-naphthyl-CO-Smp-Glu-Glu-Bta-Aad-NHtBu (peptide) | – | –
2200 | 2-EtO-naphthyl-1-CO-Smp-Glu-Pro-Bta-Aad-NHtBu (peptide) | – | increase in potency compared to cdc1671 (Cdc25A (human)): 2 fold
2500 | 2-EtO-naphthyl-1-CO-Smp-Nle-Pro-Bta-Aad-NHtBu (peptide) | – | –
1100 | 2-EtO-naphthyl-1-CO-Smp-Glu(tBu)-Pro-Bta-Aad-NHtBu (peptide) | – | –
